This note sets out measurements from patent US20240016850A1, “CELL-NANOPARTICLE DRUG DELIVERY SYSTEM AND USE OF THE SAME FOR INHIBITING GROWTH OF TUMOR CELLS AND DIAGNOSING TUMOR CELLS” (priority 2022, published 2024).

Data set [1] in a line: Biodistribution in vital organs with different treatment regimens (ICP-MS). It is filed as in vivo, rat. The following applies: 24th hour post-administration. The text has this:
In order to determine the differences in biodistribution of the cell-nanoparticle drug delivery system with those of gadodiamide and Gd-FPFNP in vital organs, the orthotopic GBM-bearing rats prepared in section B above were divided into 4 groups, namely, comparative groups 1 and 2 (CG1 and CG2), and experimental groups 1 and 2 (EG1 and EG2), with n=4 per each group. […] At the 24th hour post-administration, the orthotopic GBM-bearing rats in each group were sacrificed, and the blood and tissues from the heart, liver, spleen, lung, kidney, intestine, left brain and right brain were subjected to the pre-processing steps as described in section E above, and then subjected to quantification of elemental gadolinium (Gd) content by ICP-MS system as described in Item 5 of section B in Example 1. The results were expressed as percentage of administered (injected) dose per gram tissue (ID/g), calculated using the aforesaid formula (3), and shown in FIG. 16.

Data set [2] can be described thus: Gd3+ release from gadodiamide and Gd-FPFNP (dialysis, Xylenol orange). It is filed as physicochemical. The following applies: 24th hour; 1.05 mM gadodiamide; PBS, 37° C. As to the method: In order to monitor the in vitro release of gadolinium(III) ions (Gd^3+) from gadodiamide and Gd-FPFNP, a respective one of gadodiamide at concentration of 1.05 mM and Gd-FPFNP that was loaded with 1.05 mM of gadodiamide were incubated in DMEM, and then added into a dialysis tube with cellulose membrane having a molecular weight cutoff of 1 kDa, followed by immersing the dialysis tube in 10 mL of PBS and stirring at 37° C. Thereafter, 0.5 mL aliquots of the PBS were taken out at the 3rd hour and 24th hour of stirring, followed by addition of Xylenol orange agent and analysis using a UV-Vis detector conducted according to procedures described by Barge A. et al., in an article entitled “How to determine free Gd and free ligand in solution of Gd chelates. A technical note.” published in Contrast Media Mol. Imaging, 2006, Vol. 1, p. 184-188, so as to determine the amount of Gd^3+ released in vitro.

As for `CNC(=O)CN(CCN(CCN(CC(=O)[O-])CC(=O)NC)CC(=O)[O-])CC(=O)[O-].[Gd+3]` [gadodiamide, Gadodiamide], the “elemental gadolinium in vital organs” value in data set [1] is “not or hardly detected”. Moreover, the “concentration of Gd3+ released” value in data set [2] was found to be 38.6 µM.
